Measurements as given in US11795173B1, “Substituted pyridines as PARP1 inhibitors” (Xinthera, Inc., priority 2022, dated 2023).

Tests used:
DLD-1 BRCA2(−/−) cells = test: Cell growth inhibition assay (CellTiter-Glo), DLD-1 BRCA2(−/−); type: cell-based; conditions: Homo sapiens, DLD-1, 168 h; cell viability, CellTiter Glo 2.0, 7 days
Description: The objective of this study is to evaluate the effect of compound disclosed herein on cell proliferation through the cell viability assay in DLD-1 BRCA2(−/−) and parental isogenic pair and MDA-MB-436 (mutated BRCA1) cell lines.
DLD-1 BRCA2(−/−) and parental isogenic pair were cultured in RPMI 1640 supplemented with 10% fetal bovine serum (FBS), and MDA-MB-436 cells were cultured in DMEM supplemented with 10% FBS. Both are culture at 37° C. with 5% CO2. […] The cells were seeded into the plate in the density of 50 cells/well (DLD-1 parental), 200 cells/well (DLD-1 BRCA2−/−), or 500 cells/well (MDA-MB-436). After a short spun, the cells were cultured in a well moisturized incubator at 37° C. with 5% CO2 for 7 days without disturbance. The cell viability was measured by CellTiter Glo 2.0 assay kit (Promega, G9243), and growth inhibition rate was calculated and plotted against final compound concentration, and the data were fitted in Xfit to generate IC50.

DLD-1 parental cells = test: Cell growth inhibition assay (CellTiter-Glo), DLD-1 parental; type: cell-based; conditions: Homo sapiens, DLD-1, 168 h; cell viability, CellTiter Glo 2.0, 7 days
Description: (§1) The objective of this study is to evaluate the effect of compound disclosed herein on cell proliferation through the cell viability assay in DLD-1 BRCA2(−/−) and parental isogenic pair and MDA-MB-436 (mutated BRCA1) cell lines. The CellTiter-Glo (CTG) based cell viability assay is designed to determine the number of viable cells in the culture because of compound effect, by quantifying ATP, which indicates the presence of metabolically active cells.
(§2) DLD-1 BRCA2(−/−) and parental isogenic pair were cultured in RPMI 1640 supplemented with 10% fetal bovine serum (FBS), and MDA-MB-436 cells were cultured in DMEM supplemented with 10% FBS. Both are culture at 37° C. with 5% CO2. Invention compounds were distributed to the 384 well plate (Corning, 3764) using Echo acoustic liquid handler to form a 1:3 serially diluted final concentration with top dose of 10 or 30 μM. The cells were seeded into the plate in the density of 50 cells/well (DLD-1 parental), 200 cells/well (DLD-1 BRCA2−/−), or 500 cells/well (MDA-MB-436). After a short spun, the cells were cultured in a well moisturized incubator at 37° C. with 5% CO2 for 7 days without disturbance. The cell viability was measured by CellTiter Glo 2.0 assay kit (Promega, G9243), and growth inhibition rate was calculated and plotted against final compound concentration, and the data were fitted in Xfit to generate IC50.

[1] = system: MDA-MB-436 (mutated BRCA1) cells; test: Cell growth inhibition assay (CellTiter-Glo), MDA-MB-436; type: cell-based; conditions: Homo sapiens, MDA-MB-436, 168 h; cell viability, CellTiter Glo 2.0, 7 days
Description: as §1, §2

PARP1 = PARP1 (Homo sapiens (Human), UniProt P09874); test: Biochemical fluorescence polarization (FP) assay, PARPi-FL displacement, PARP1; type: binding; conditions: 20 nM protein, 3 nM PARPi-FL, 4 h at room temperature
Description: (§3) To characterize our compounds, we utilized an assay measuring the displacement of a commercially available fluorescently labeled PARP 1/2 inhibitor (PARPi-FL, Tocris Biosciences, #6461) as exemplified in assays performed in WO2014/064149 and WO2021/013735A1. The assay was performed utilizing the following method: Compounds were dissolved in DMSO an Echo550 liquid handler was utilized to make serial dilations in the desired concentration range in Optiplate-384F plates. 100% DMSO was used for the high (with protein) and low (without protein) control samples. 20 nL of compound or DMSO alone was added to individual assay plate wells. […] The PARPi-FL was then added at a final concentration of 3 nM. The assay plate is centrifuged at 1000 rpm for 1 min and incubated for 4 h at room temperature. […] XLFit (equation 201) is used to calculate a reported IC50 for each compound.

PARP2 = PARP2 (Homo sapiens (Human), UniProt Q9UGN5); test: Biochemical fluorescence polarization (FP) assay, PARPi-FL displacement, PARP2; type: binding; conditions: 20 nM protein, 3 nM PARPi-FL, 4 h at room temperature
Description: as §3

MDR1 = MDR1 (Homo sapiens (Human), UniProt P08183); test: In vitro human transporter efflux, MDCKII cells expressing MDR1; type: in vitro ADME; conditions: for Papp A→B at 2 h, 10 μM: MDCK-MDR1, pH 7.4, apical-to-basolateral, pH7.4, read-out: MDCK-MDR1 Papp AB; for Papp A→B at 2 h, 10 μM / Papp B→A at 2 h, 10 μM: 2-hour incubation; for Papp B→A at 2 h, 10 μM: MDCK-MDR1, pH 7.4, basolateral-to-apical, pH7.4, read-out: MDCK-MDR1 Papp BA; for efflux ratio at 2 h, 10 μM: MDCK-MDR1, pH 7.4, efflux ratio Papp BA/Papp AB
Description: (§4) Madin-Darby canine kidney (MDCKII) cells expressing either MDR1 or BCRP were seeded onto Corning HTS Transwell® 96-well polycarbonate permeable (0.4 μm pore) supports at a density of 545,000 cells/cm^2. Cells were incubated for 4-8 days prior to assay, and monolayer integrity was assessed by measuring transepithelial electrical resistance (TEER). […] The final organic solvent concentration was 0.5% (v/v). Bidirectional (apical-to-basolateral and basolateral-to-apical) flux of the test and reference compounds was determined over a 2-hour incubation at 37° C. and 5% CO2 with a relative humidity of 95%. At the end of the incubation, samples from the apical and basolateral side were taken and then precipitated with acetonitrile containing internal standard. After centrifugation at 3200×g, supernatants were diluted 1:1 (v/v) with water and subjected to analysis via HPLC-MS/MS.
(§5) Apparent permeability (Papp, ×10^−6 cm/s) was calculated for all transport assays using the following equation: […]
(§6) Efflux ratio was determined by calculating the ratio of the Papp in the basolateral-to-apical direction to the Papp in the apical-to-basolateral direction using the following equation: […]

BCRP = BCRP (Homo sapiens (Human), UniProt Q9UNQ0); test: In vitro human transporter efflux, MDCKII cells expressing BCRP; type: in vitro ADME; conditions: for Papp A→B at 2 h, 10 μM: pH 7.4, apical-to-basolateral, pH7.4, read-out: BCRP Papp AB; for Papp A→B at 2 h, 10 μM / Papp B→A at 2 h, 10 μM: 2-hour incubation; for Papp B→A at 2 h, 10 μM: pH 7.4, basolateral-to-apical, pH7.4, read-out: BCRP Papp BA; for efflux ratio at 2 h, 10 μM: pH 7.4, efflux ratio Papp BA/Papp AB
Description: as §4, §5, §6

[2] = HLM stability, predicted human hepatic clearance; type: in vitro ADME; conditions: well-stirred model, 1 μM, 0.5 mg/mL microsomal protein, NADPH
Description: Working stocks of individual test articles were prepared at a concentration of 100 μM by diluting 10 mM stocks prepared in DMSO 100-fold (v:v) into ACN. Thawed hepatic microsomes were suspended in 100 mM potassium phosphate buffer, pH 7.4 to a microsomal protein concentration of 0.562 mg/mL. Diluted microsomes were combined with a solution of 10 mM NADPH, and the mixture was pre-warmed to 37° C. for 8 min. Reactions were initiated by addition of the test article working stocks to achieve a final test article concentration of 1 μM. Final microsomal protein and NADPH concentrations were 0.5 mg/mL and 1 mM, respectively. Incubations containing NADPH were run in duplicate. Test article losses mediated by non-CYP mechanisms were evaluated in a parallel set of incubations run in the absence of NADPH. Incubations lacking NADPH consisted of 1 replicate per test article. Following incubation in a 37° C. water bath, aliquots of individual reactions were quenched with cold ACN containing internal standards at […], 15-, 30-, 60-, 90-, and 120-min. Precipitated protein was pelleted via refrigerated centrifugation. Supernatants were diluted into an equal volume of pure water and mixed well prior to analysis via LC-MS/MS. In vitro intrinsic clearances (CLint) in μL/min/mg were determined for each incubation from calculated in vitro half-lives determined using a standard log-linear regression approach. In vitro CLint values were scaled up using the following physiological scaling factors: 40 mg microsomal protein/g human liver and 25.7 g human liver/kg body weight.

[3] = hHEP stability, predicted human hepatic clearance; type: in vitro ADME; conditions: well-stirred model, 0.5×10^6 viable cells/mL
Description: Working stocks of individual test articles were prepared at concentrations of 100 μM by diluting 10 mM stocks prepared in DMSO 100-fold (v:v) into ACN/H2O (50/50, v:v). Human cryopreserved hepatocytes were thawed in a 37° C. water bath in <2 min., suspended in thawing media, and then centrifuged at 100×g for 10 min. Thawing media was aspirated, and pelleted hepatocytes were resuspended into incubation media at 1.5×10^6 cells/mL. Cell viability was determined using an Acridine Orange/Propidium Iodine stain, and hepatocytes were further diluted with incubation media to 0.5×10^6 viable cells/mL. Hepatocyte aliquots of 198 μL were added to wells of a 96-well plate, and test article incubations were initiated by the addition of 2 μL of 100 μM working stocks. Plates were incubated at 37° C. in a 5% CO2 atmosphere at 95% relative humidity on an orbital shaker at 300 rpm. Incubations were performed in duplicate. Following incubation, aliquots of individual reactions were terminated by addition of ACN containing internal standards at 0, 30-, 60-, 90-, 120-, and 240-min. Precipitated protein was pelleted via refrigerated centrifugation. Supernatants were diluted into an equal volume of pure water and mixed well prior to analysis via LC-MS/MS. In vitro intrinsic clearances (CLint) in μL/min/10^6 cells were determined for each incubation from calculated in vitro half-lives determined using a standard log-linear regression approach. In vitro CLint values were scaled up using the following physiological scaling factors: 99×10^6 cells/g human liver and 25.7 g human liver/kg body weight.

Chain of PARP1 (P09874 whole entry): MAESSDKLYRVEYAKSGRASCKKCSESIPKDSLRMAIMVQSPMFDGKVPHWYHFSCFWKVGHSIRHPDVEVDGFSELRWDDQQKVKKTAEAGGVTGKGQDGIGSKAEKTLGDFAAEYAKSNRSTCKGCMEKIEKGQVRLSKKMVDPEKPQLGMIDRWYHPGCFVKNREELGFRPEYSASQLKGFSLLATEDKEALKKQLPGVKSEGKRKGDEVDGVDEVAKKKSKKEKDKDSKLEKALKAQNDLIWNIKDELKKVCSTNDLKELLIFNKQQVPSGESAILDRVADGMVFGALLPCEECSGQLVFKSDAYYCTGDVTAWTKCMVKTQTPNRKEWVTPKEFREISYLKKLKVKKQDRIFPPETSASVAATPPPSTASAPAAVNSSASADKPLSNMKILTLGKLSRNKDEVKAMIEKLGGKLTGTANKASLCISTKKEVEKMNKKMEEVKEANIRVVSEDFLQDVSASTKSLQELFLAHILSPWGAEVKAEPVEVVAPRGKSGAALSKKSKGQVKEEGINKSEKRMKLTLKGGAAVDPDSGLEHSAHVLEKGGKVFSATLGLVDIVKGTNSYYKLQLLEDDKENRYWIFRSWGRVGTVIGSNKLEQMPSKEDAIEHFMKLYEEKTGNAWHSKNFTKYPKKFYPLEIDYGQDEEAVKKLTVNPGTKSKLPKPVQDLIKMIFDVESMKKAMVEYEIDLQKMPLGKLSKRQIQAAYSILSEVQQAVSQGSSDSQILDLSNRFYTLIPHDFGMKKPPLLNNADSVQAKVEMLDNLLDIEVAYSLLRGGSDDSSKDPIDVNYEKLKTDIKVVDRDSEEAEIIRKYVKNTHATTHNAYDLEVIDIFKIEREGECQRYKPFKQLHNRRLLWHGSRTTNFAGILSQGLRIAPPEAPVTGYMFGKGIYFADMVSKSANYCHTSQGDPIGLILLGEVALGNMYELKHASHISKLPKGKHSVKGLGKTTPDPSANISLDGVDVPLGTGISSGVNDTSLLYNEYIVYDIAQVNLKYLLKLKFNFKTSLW
Chain of PARP2 (Q9UGN5 whole entry): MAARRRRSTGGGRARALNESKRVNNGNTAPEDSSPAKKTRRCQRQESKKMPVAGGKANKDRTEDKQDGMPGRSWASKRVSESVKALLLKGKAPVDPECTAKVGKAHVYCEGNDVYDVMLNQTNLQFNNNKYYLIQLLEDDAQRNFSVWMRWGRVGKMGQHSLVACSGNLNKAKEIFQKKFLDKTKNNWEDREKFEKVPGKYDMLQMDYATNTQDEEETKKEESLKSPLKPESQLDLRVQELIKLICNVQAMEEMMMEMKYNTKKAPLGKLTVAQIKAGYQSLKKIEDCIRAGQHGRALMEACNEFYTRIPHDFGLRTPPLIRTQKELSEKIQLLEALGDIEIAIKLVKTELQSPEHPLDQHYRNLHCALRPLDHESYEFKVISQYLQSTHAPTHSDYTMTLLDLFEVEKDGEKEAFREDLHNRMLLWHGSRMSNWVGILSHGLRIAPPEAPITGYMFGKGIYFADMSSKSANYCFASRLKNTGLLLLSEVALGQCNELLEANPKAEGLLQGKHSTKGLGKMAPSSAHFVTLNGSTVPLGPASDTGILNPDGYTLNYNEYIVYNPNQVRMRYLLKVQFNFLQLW
Chain of MDR1 (P08183 whole entry): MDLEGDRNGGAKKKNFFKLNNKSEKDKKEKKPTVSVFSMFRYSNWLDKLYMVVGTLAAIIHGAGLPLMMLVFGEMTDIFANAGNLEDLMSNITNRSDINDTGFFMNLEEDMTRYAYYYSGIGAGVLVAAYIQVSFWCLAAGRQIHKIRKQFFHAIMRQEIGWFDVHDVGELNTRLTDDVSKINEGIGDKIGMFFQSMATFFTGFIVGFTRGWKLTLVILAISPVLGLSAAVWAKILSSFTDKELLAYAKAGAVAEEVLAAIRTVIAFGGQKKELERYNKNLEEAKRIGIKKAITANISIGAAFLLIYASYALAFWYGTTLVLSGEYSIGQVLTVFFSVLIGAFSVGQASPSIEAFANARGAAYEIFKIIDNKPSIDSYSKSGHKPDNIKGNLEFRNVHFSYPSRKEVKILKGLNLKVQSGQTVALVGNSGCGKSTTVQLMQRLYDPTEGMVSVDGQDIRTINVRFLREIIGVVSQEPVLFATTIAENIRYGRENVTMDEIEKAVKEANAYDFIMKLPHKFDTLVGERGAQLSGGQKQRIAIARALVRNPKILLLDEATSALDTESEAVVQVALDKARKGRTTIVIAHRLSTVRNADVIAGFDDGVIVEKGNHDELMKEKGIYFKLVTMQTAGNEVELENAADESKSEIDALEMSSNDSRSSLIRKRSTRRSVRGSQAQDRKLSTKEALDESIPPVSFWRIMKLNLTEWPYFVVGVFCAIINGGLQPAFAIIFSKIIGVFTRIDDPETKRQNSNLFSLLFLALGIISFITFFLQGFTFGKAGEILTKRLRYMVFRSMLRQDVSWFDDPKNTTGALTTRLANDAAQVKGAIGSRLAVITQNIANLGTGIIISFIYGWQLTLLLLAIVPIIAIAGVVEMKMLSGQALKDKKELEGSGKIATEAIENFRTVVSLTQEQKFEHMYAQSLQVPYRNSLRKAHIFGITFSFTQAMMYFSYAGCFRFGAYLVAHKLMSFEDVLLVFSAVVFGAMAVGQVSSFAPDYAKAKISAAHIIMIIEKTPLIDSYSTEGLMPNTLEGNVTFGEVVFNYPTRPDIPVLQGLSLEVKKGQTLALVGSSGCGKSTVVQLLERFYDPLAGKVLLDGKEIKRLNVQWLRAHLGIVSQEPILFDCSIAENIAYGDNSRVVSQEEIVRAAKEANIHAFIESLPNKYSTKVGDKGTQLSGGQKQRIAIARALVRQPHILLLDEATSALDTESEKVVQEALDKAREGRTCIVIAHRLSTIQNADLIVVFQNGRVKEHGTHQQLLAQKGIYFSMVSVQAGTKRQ
Chain of BCRP (Q9UNQ0 whole entry): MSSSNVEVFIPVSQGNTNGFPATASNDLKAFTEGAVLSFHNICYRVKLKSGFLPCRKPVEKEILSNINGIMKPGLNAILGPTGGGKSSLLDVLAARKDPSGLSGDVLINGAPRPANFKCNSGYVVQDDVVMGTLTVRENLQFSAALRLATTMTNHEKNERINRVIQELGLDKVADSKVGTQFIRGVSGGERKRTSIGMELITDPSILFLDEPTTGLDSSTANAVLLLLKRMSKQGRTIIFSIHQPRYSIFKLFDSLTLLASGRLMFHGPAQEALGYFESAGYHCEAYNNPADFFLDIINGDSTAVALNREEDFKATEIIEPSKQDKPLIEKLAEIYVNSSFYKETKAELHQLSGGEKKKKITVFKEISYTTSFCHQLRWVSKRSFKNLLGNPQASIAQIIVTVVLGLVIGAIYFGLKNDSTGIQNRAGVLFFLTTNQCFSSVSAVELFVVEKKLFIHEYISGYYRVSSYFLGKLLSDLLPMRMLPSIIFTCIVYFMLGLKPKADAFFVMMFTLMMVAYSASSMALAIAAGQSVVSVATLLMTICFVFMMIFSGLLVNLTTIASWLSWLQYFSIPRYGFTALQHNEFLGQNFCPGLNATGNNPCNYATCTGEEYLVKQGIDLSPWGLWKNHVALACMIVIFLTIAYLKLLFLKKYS

Row | SMILES | EC50 (DLD-1 BRCA2(−/−) cells) | EC50 (DLD-1 parental cells) | EC50 [1] | IC50 (PARP1) | IC50 (PARP2) | Papp A→B at 2 h, 10 μM (MDR1) | Papp B→A at 2 h, 10 μM (MDR1) | efflux ratio at 2 h, 10 μM (MDR1) | Papp A→B at 2 h, 10 μM (BCRP) | Papp B→A at 2 h, 10 μM (BCRP) | efflux ratio at 2 h, 10 μM (BCRP) | HLM Clh [2] | HHEP Clh [3]
1 | [2H]C([2H])([2H])NC(=O)c1ccc(N2CCN(Cc3ccc4c([nH]c(=O)c5ccnn54)c3F)CC2)c(F)n1 [Example 18] | 1.9 nM | > 30000 nM | 1.2 nM | 6.2 nM | > 100000 nM | 15.2 ×10⁻⁶ cm/s | 22.7 ×10⁻⁶ cm/s | 1.5 | 21.1 ×10⁻⁶ cm/s | 18.2 ×10⁻⁶ cm/s | 0.87 | – | –
2 | [2H]C([2H])([2H])NC(=O)c1ccc(N2CCN(Cc3ccc4c([nH]c(=O)c5ccoc54)c3F)CC2)c(F)n1 [Example 30] | 6.5 nM | – | 4.6 nM | 56 nM | > 100000 nM | – | – | – | – | – | – | – | –
3 | CNC(=O)c1ccc(N2CCN(Cc3cc(F)c4c5c(c(=O)[nH]c4c3)COC5)CC2)c(F)n1 [Comp. Ex. 3, 6-fluoro-5-(4-((9-fluoro-4-oxo-1,3,4,5-tetrahydrofuro[3,4-c]quinolin-7-yl)methyl)piperazin-1-yl)-N-methylpicolinamide, reference compound] | 1.6 nM | – | 0.4 nM | – | – | 6.6 ×10⁻⁶ cm/s | 32.3 ×10⁻⁶ cm/s | 5 | – | – | – | 7.2 mL/min/kg | 7.1 mL/min/kg
4 | CNC(=O)c1ccc(N2CCN(Cc3ccc4c5c(c(=O)[nH]c4c3)CCO5)CC2)c(Cl)n1 [Comp. Ex. 2, 6-chloro-N-methyl-5-[4-({4-oxo-2H,3H,5H-furo[3,2-c]quinolin-7-yl}methyl)piperazin-1-yl]pyridine-2-carboxamide, reference compound] | 1.7 nM | – | 0.7 nM | – | – | 5.7 ×10⁻⁶ cm/s | 29 ×10⁻⁶ cm/s | 5.1 | – | – | – | 4.2 mL/min/kg | 6.6 mL/min/kg
5 | [2H]C([2H])([2H])NC(=O)c1ccc(N2CCN(Cc3ccc4c([nH]c(=O)c5c(F)cnn54)c3F)CC2)c(F)n1 (single isomer, unassigned) [Example 33] | 0.96 nM | – | 0.79 nM | 11 nM | > 100000 nM | – | – | – | – | – | – | – | –
6 | CNC(=O)c1ccc(N2CCN(Cc3ccc4c5c(c(=O)[nH]c4c3)CCO5)CC2)c(C)n1 [Comp. Ex. 1, N,6-dimethyl-5-[4-({4-oxo-2H,3H,5H-furo[3,2-c]quinolin-7-yl}methyl)piperazin-1-yl]pyridine-2-carboxamide, reference compound] | 2 nM | – | 0.6 nM | – | – | 7.5 ×10⁻⁶ cm/s | 39.8 ×10⁻⁶ cm/s | – | – | – | – | <4 mL/min/kg | <3.3 mL/min/kg
7 | CNC(=O)c1ccc(N2CCN(Cc3ccc4c([nH]c(=O)c5ccnn54)c3F)CC2)c(F)n1 [Example 1, 6-fluoro-5-[4-({6-fluoro-4-oxo-5H-pyrazolo[1,5-a]quinoxalin-7-yl}methyl)piperazin-1-yl]-N-methylpyridine-2-carboxamide] | 4.1 nM | > 30000 nM | 2.9 nM | – | – | 15.9 ×10⁻⁶ cm/s | 29.6 ×10⁻⁶ cm/s | 1.87 | 21.7 ×10⁻⁶ cm/s | 20.4 ×10⁻⁶ cm/s | 0.95 | – | –
8 | CNC(=O)c1ccc(N2CCN(Cc3ccc4c5c(c(=O)[nH]c4c3F)CCO5)CC2)c(F)n1 [Example 9, 6-fluoro-5-[4-({6-fluoro-4-oxo-2H,3H,5H-furo[3,2-c]quinolin-7-yl}methyl)piperazin-1-yl]-N-methylpyridine-2-carboxamide] | 3.2 nM | > 30000 nM | 1.6 nM | – | – | 19.4 ×10⁻⁶ cm/s | 31.4 ×10⁻⁶ cm/s | – | 26.7 ×10⁻⁶ cm/s | 24.3 ×10⁻⁶ cm/s | – | <4 mL/min/kg | <3.3 mL/min/kg
9 | [2H]C([2H])(c1ccc2c([nH]c(=O)c3c(F)cnn32)c1F)N1CCN(c2ccc(C(=O)NC)nc2F)CC1 (single isomer, unassigned) [Example 34] | 0.99 nM | – | 1.1 nM | 40 nM | > 100000 nM | – | – | – | – | – | – | – | –
